One data set relates to aquatic organisms. Conditions: Triton X-100 and its break-down products; recent ecological studies; cited from earlier work.
The subject of a further data set is pseudorabies virus (PRV). It is filed as cell-based. As to conditions: S/D treatment 0.04%-0.06% detergent, IVIG-containing liquid, 17° C.±1° C., FIG. 9A.

With “4-(1,1,3,3-tetramethylbutyl)phenol, ethoxylated [Triton X-100]”, in the data set on aquatic organisms, the “endocrine disrupter behaviour in aquatic organisms” value is on record as “can potentially behave as endocrine disrupters in aquatic organisms”.

For the substance “4-tert-octylbenzyl alcohol polyethoxylate”, the “inactivation kinetics compared to Triton X-100, PRV” value in the data set with pseudorabies virus (PRV) was “identical inactivation kinetics”.

These data come from US12258540B2, “Environmentally compatible detergents for inactivation of lipid-enveloped viruses” (TAKEDA PHARMACEUTICAL COMPANY LIMITED, priority 2017, dated 2025).
